PMC3829359 (The Journal of Biological Chemistry, 2021)

Experiments:
DC-SIGNR CRD [1] = target: T1, DC-SIGNR CRD (Homo sapiens, UniProt Q9H2X3); experiment: 1H-15N HSQC NMR titration, chemical shift perturbation, […] fit; assay type: binding; conditions: pH 6.8, 37 °C, 20 mM HEPES-d18, 20 mM NaCl, 4 mM Ca2+, 0.7 mM protein
T1 sequence (Q9H2X3 262-399): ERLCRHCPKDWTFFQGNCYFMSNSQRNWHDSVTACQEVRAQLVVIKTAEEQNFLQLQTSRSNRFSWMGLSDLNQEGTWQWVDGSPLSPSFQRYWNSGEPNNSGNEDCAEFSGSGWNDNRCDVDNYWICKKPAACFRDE

DC-SIGNR CRD [2] = target: T1, DC-SIGNR CRD; experiment: 1H-15N HSQC NMR titration, chemical shift perturbation; assay type: binding; conditions: pH 6.8, 37 °C, 20 mM HEPES-d18, 20 mM NaCl, 4 mM Ca2+, 0.7 mM protein; intermediate exchange, severe line broadening, KD could not be estimated

For `OC[C@H]1O[C@H](OC[C@H]2OC(O)[C@@H](O)[C@@H](O[C@H]3O[C@H](CO)[C@@H](O)[C@H](O)[C@@H]3O)[C@@H]2O)[C@@H](O)[C@@H](O)[C@@H]1O` (stereo partly drawn) [Man3], the Kd (DC-SIGNR CRD [1]) was 2040 ± 540 µM.

In the case of `CC(=O)N[C@H]1C(O)O[C@H](CO)[C@@H](O[C@@H]2O[C@H](CO[C@H]3O[C@H](CO[C@H]4O[C@H](CO)[C@@H](O)[C@H](O)[C@@H]4O[C@H]4O[C@H](CO)[C@@H](O)[C@H](O)[C@@H]4O)[C@@H](O)[C@H](O[C@H]4O[C@H](CO)[C@@H](O)[C@H](O)[C@@H]4O[C@H]4O[C@H](CO)[C@@H](O)[C@H](O)[C@@H]4O)[C@@H]3O)[C@@H](O)[C@H](O[C@H]3O[C@H](CO)[C@@H](O)[C@H](O)[C@@H]3O[C@H]3O[C@H](CO)[C@@H](O)[C@H](O)[C@@H]3O[C@H]3O[C@H](CO)[C@@H](O)[C@H](O)[C@@H]3O)[C@@H]2O)[C@@H]1O` (stereo partly drawn) [Man9GlcNAc], the “1H-15N HSQC NMR titration, chemical shift perturbation” value (DC-SIGNR CRD [2]) is reported as “binding of Man9GlcNAc caused substantial broadening and disappearance of a number of CRD peaks”.

`OC[C@H]1O[C@H](OC[C@H]2O[C@H](OC[C@H]3OC(O)[C@@H](O)[C@@H](O[C@H]4O[C@H](CO)[C@@H](O)[C@H](O)[C@@H]4O)[C@@H]3O)[C@@H](O)[C@@H](O[C@H]3O[C@H](CO)[C@@H](O)[C@H](O)[C@@H]3O)[C@@H]2O)[C@@H](O)[C@@H](O)[C@@H]1O` (stereo partly drawn) [Man5] gave a Kd (DC-SIGNR CRD [1]) of 2200 ± 430 µM.
